In one assay the test system is Pseudomonas fluorescens. In words: Bactericidal activity of phenol oxidizing enzyme plus enhancing agent, surviving cells enumerated by Malthus (Examples 1 and 3). Type of assay: cell-based. Conditions: 20 min, 40° C. The protocol:
(§1) Antimicrobial activity was evaluated in 0.05 M MES-buffer (Sigma M8250) (pH 6) or 0.05 HEPES-buffer (Sigma H3375) (pH 8); buffers were sterilised by filter sterilisation. The antimicrobial activity was determined against Pseudomonas fluorescens (Gram et al. 1990, International Journal of Food Microbiology 10: 303-316) and Staphylococcus epidermidis (DSM 20042). Cells were grown in Tryptone Soya Broth (Oxoid CM129) at 30° C. (S. epidermidis) or 25° C. (P. fluorescens) for 24 h and diluted in the MES-buffer to a final cell concentration of approximately 10^6 cfu/ml. The cell suspensions were mixed with rCiP (3 POXU/ml), enhancing agent (0.2 mM) and hydrogen peroxide (0.5 mM) for 20 min at 40° C. The bactericidal activity was determined by incubation in Malthus. Detection times measured by the Malthus instrument were converted to cfu/ml by a calibration curve. Either direct or Indirect Malthus measurements were used when enumerating total survival cells (Malthus Flexi M2060, Malthus Instrument Limited). By the direct measurements, the cell metabolism was determined by conductance measurements in the growth substrate. By the indirect measurements, 3 ml of growth medium was transferred to the outer chamber of the indirect Malthus cells, and 0.5 ml of sterile KOH (0.1 M) was transferred to the inner chamber. The cell suspensions were after enzyme treatment transferred to the outer chamber of the Malthus cell. As cells are growing in the outer chamber they produce CO2 which will dissolve in the KOH in the inner chamber and thereby change the conductance of the KOH. The amount of CO2 formed by the respiring cells surviving the enzyme treatment was used for estimating the number of viable cells. When the conductance change is measurable by the Malthus, a detection time (dt) will be recorded. The dt's were converted to colony counts by use of a calibration curve relating cfu/ml to dt (Johansen et al. 1995. Journal of Applied Bacteriology 78:297-303, Johansen et al. 1997, Applied and Environmental Microbiology 63:3724-3728). Antibacterial activity of Coprinus cinereus peroxidase (rCiP), Polyporus pinsitus laccase (rPpL), Coprinus cinereus laccase (rCcL) and Rhizoctonia solani laccase (rRsL) (as described in WO 95/07988) was determined with different enhancing agents at pH 6 and 8 (buffers; see Example 1). The rCiP was combined with 0.5 mM hydrogen peroxide. Antimicrobial activity of rCiP and rPpL was determined against Pseudomonas fluorescens (Gram et al. 1990, International Journal of Food Microbiology 10:303-316), whereas antimicrobial activity of rCcL and rRsL was determined against Pseudomonas aeruginosa (ATCC 10145). The bactericidal activity was determined as described in example 1. The results are shown as the reduction in living cell number. Thus, a reduction of 4 correspond to a 4 log reduction of living cells e.g. from 10^6 CFU/ml to 10^2 CFU/ml.

Assay [1] deals with Pseudomonas aeruginosa (ATCC 10145). In words: Bactericidal activity of laccase plus enhancing agent, surviving cells enumerated by Malthus (Examples 2 and 3). It is filed as cell-based. Conditions: 20 min, 40° C. The protocol:
as §1, with “The antimicrobial” for “Antimicrobial activity was evaluated in 0.05 M MES-buffer (Sigma M8250) (pH 6) or 0.05 HEPES-buffer (Sigma H3375) (pH 8); buffers were sterilised by filter sterilisation. The antimicrobial”, “activity of Polyporus pinsitus laccase (rPpL), obtained as described in WO 96/00290), and Coprinus cinereus laccase (rCcL), obtained as described in WO 97/08325, was determined with N-hydroxyacetanilide as enhancing agent against Pseudomonas aeruginosa (ATCC 10145), Enterobacter aerogenes (ATCC 13048) and Enterococcus faecalis (DSM 2570). The bactericidal activity was determined as described in Example 1, the antimicrobial activity of rPpL (1 mg/L) was evaluated at pH 6, whereas rCcL (1 mg/L) was evaluated at pH 8. Antibacterial activity of Coprinus cinereus” for “activity of Coprinus cinereus”

The mark [2] stands for this setting: rCiP = 3 POXU/ml + 0.5 mM hydrogen peroxide, pH 6.
The mark [3] stands for this setting: rCiP = 3 POXU/ml + 0.5 mM hydrogen peroxide, pH 8.

From US6592867B2, “Antimicrobial composition containing an oxidoreductase and an enhancer of the N-hydroxyanilide-type” (Novozymes A/S, priority 1998, dated 2003) come the findings set out here.

Consider `CC(=O)N(O)c1ccc(O)cc1` [N1-(4-hydroxyphenyl)-N1-hydroxyacetamide], for which the “Bactericidal activity (reduction in living cell number)” value with Pseudomonas fluorescens (setting [2]) is on record as 3.7 log CFU/ml; with Pseudomonas fluorescens (setting [3]), 1.1 log CFU/ml.
In the case of `N#Cc1ccc(C(=O)N(O)c2ccccc2)cc1` [N1-hydroxy-N1-phenyl-4-cyanobenzamide], the “Bactericidal activity (reduction in living cell number)” value in assay [1] (rCcL = 5 mg/L, pH 6) is on record as 3.5 log CFU/ml; in assay [1] (rCcL = 5 mg/L, pH 8), 6.5 log CFU/ml; in assay [1] (rRsL = 5 mg/L, pH 6), 3.5 log CFU/ml; in assay [1] (rRsL = 5 mg/L, pH 8) it was 6.5 log CFU/ml; in the assay with Pseudomonas fluorescens (setting [2]), 6.1 log CFU/ml; in the assay on Pseudomonas fluorescens (setting [3]), 2.1 log CFU/ml. In addition, in the assay with Pseudomonas fluorescens (rPpL = 5 mg/L, pH 6), the “Bactericidal activity (reduction in living cell number)” value came out at 2.5 log CFU/ml.
With `CC(=O)N(O)c1cccc([N+](=O)[O-])c1` [N1-hydroxy-N1-(3-nitrophenyl)acetamide], the “Bactericidal activity (reduction in living cell number)” value came out at 1.5 log CFU/ml with Pseudomonas fluorescens (setting [2]); 1.1 log CFU/ml in the assay with Pseudomonas fluorescens (setting [3]); 1.6 log CFU/ml in the assay with Pseudomonas fluorescens (rPpL = 5 mg/L, pH 6).
`O=C(c1ccc([N+](=O)[O-])cc1)N(O)c1ccccc1` [N1-hydroxy-N1-phenyl-4-nitrobenzamide]: the “Bactericidal activity (reduction in living cell number)” value in the assay with Pseudomonas fluorescens (setting [3]) worked out at 1.4 log CFU/ml.
Regarding `CC(=O)N(O)c1ccc(C#N)cc1` [N1-(4-cyanophenyl)-N1-hydroxyacetamide], in the assay on Pseudomonas fluorescens (rPpL = 5 mg/L, pH 6), the “Bactericidal activity (reduction in living cell number)” value is recorded as 1.7 log CFU/ml.
On to `CC(=O)N(O)c1ccc([N+](=O)[O-])cc1` [N1-hydroxy-N1-(4-nitrophenyl)acetamide], for which the “Bactericidal activity (reduction in living cell number)” value worked out at 4.2 log CFU/ml with Pseudomonas fluorescens (setting [2]); 1.2 log CFU/ml in the assay with Pseudomonas fluorescens (setting [3]); 6.7 log CFU/ml with Pseudomonas fluorescens (rPpL = 5 mg/L, pH 6); 1.7 log CFU/ml in the assay on Pseudomonas fluorescens (rPpL = 5 mg/L, pH 8).
Regarding `COc1ccc(C(=O)N(O)c2ccccc2)cc1` [N1-hydroxy-N1-phenyl-4-methoxybenzamide], the “Bactericidal activity (reduction in living cell number)” value in assay [1] (rCcL = 5 mg/L, pH 6) stood at 5.9 log CFU/ml; in assay [1] (rCcL = 5 mg/L, pH 8), 6.3 log CFU/ml; in assay [1] (rRsL = 5 mg/L, pH 6), 3.8 log CFU/ml; in assay [1] (rRsL = 5 mg/L, pH 8), 4.6 log CFU/ml; in the assay on Pseudomonas fluorescens (setting [2]) it was 4.1 log CFU/ml; in the assay on Pseudomonas fluorescens (rPpL = 5 mg/L, pH 8) it was 4.8 log CFU/ml.
As for `CC(=O)c1ccc(N(O)C(C)=O)cc1` [N1-(4-acetylphenyl)-N1-hydroxyacetamide], the “Bactericidal activity (reduction in living cell number)” value in the assay on Pseudomonas fluorescens (setting [2]) is recorded as 1.2 log CFU/ml.
